Measured values: patent publication US20250205350A1, “Antibody-Drug Conjugates and Uses Thereof” (Vivasor, Inc., priority 2022, published 2025)

Assays:
[1] = test system: MDA-MB-468 (HER2−); assay: In vitro cell viability (CellTiter-Glo) of camptothecin derivatives in MDA-MB-468; assay type: cell-based, human; conditions: 120-hour assay
Experimental: (§1) The in vitro efficacies of camptothecin derivatives were evaluated using the following human cancer cell lines: SkBr-3 (Her2+) and MDA-MB-468 (HER2−), purchased from the American Type Culture Collection (ATCC; Manassas, VA) and were routinely cultured in DMEM/F-12 medium (Catalog #10-090-CV; Corning) supplemented with 10% fetal bovine serum (FBS; Catalog #MT35011CV; Corning) and 1× Penicillin-Streptomycin (Catalog #30-002-CI; Corning) and maintained at 37° C. with 5% CO2 in a humidified environment.
(§2) Tumor cells were harvested by detachment with cell stripper. Viable cell counts were made by Trypan blue exclusion using a Countess or Countess II automated cell counter. Cell Viability Assay: All cells were harvested and seeded into 384-well white wall clear bottom plates (Catalog #3765; Corning) at a density of 875 cells/well in DMEM/F-12 medium supplemented with 10% fetal bovine serum and 1× Penicillin-Streptomycin (complete growth media). Plates were maintained at 37° C. for 4-6 hours to allow cells to adhere to the plate. The outer wells of plates contained complete growth medium only and were used for background subtraction for the cell viability assay. Working solutions of test articles were prepared at 2× final concentrations with 5-fold serial dilutions in complete growth medium. Cell treatment was performed in triplicates and maintained at 37° C. for 120-hour assay. After treatment, cell viability was determined by CellTiter-Glo 2.0 assay (Catalog #G9243; Promega; Madison, WI, USA) based on the manufacturer's instructions. CellTiter Glo reagent reacts with ATP in metabolically active cells to give a luminescent readout that is directly proportional to the number of viable cells. Briefly, plates were removed from the incubator and equilibrated to room temperature before addition of CellTiter Glo reagent. Luminescence was measured using a Tecan Spark microplate reader (Tecan; Mannedorf, Switzerland).
(§3) For Cytotoxicity assays, raw luminescence data was background subtracted with average luminescence from the outer wells containing medium only and normalized to untreated controls using Excel (Microsoft; […]). Dose-response relationships and EC50 values were determined based on non-linear regression analysis of normalized data fit to a four-parameter logistic equation using GraphPad Prism 8.0.

[2] = test system: SkBr-3 (Her2+); assay: In vitro cell viability (CellTiter-Glo) of camptothecin derivatives in SkBr-3; assay type: cell-based, human; conditions: 120-hour assay
Experimental: as §1, §2, §3

[3] = test system: HER2-negative MDA-MB-468; assay: In vitro cell viability (CellTiter-Glo) of anti-HER2 ADCs in MDA-MB-468; assay type: cell-based; conditions: Homo sapiens, MDA-MB-468, 120 h, 120-hour assay
Experimental: as §1, with “ADCs” for “The in vitro efficacies of camptothecin derivatives”, “HER2-positive SkBr-3, HER2-positive NCI-N87,” for “SkBr-3 (Her2+)”, “HER2-negative MDA-MB-468,” for “MDA-MB-468 (HER2−),”, “#[…];” for “#10-090-CV;”
(§4) Tumor cells were harvested by detachment with cell stripper. Viable cell counts were made by Trypan blue exclusion using a Countess or Countess II automated cell counter. […] After treatment, cell viability was determined by CellTiter-Glo 2.0 assay (Catalog #G9243; Promega; Madison, WI, USA) based on the manufacturer's instructions. CellTiter Glo reagent reacts with ATP in metabolically active cells to give a luminescent readout that is directly proportional to the number of viable cells. […] Luminescence was measured using a Tecan Spark microplate reader (Tecan; Mannedorf, Switzerland).
(§5) For Cytotoxicity assays, raw luminescence data was background subtracted with average luminescence from the outer wells containing medium only and normalized to untreated controls using Excel (Microsoft; Albuquerque, NM). […]

[4] = test system: HER2-positive SkBr-3; assay: In vitro cell viability (CellTiter-Glo) of anti-HER2 ADCs in SkBr-3; assay type: cell-based; conditions: Homo sapiens, SK-BR-3, 120 h, Table 6; 120-hour assay
Experimental: as §1, with “ADCs” for “The in vitro efficacies of camptothecin derivatives”, “HER2-positive SkBr-3, HER2-positive NCI-N87,” for “SkBr-3 (Her2+)”, “HER2-negative MDA-MB-468,” for “MDA-MB-468 (HER2−),”, “#[…];” for “#10-090-CV;”
as §4, §5

[5] = Homo sapiens, MDA-MB-468, 120 h, Table 4A, derivatives as TFA salt, exatecan mesylate
[6] = Homo sapiens, SK-BR-3, 120 h, Table 4A, derivatives as TFA salt, exatecan mesylate
[7] = Table 4A, derivatives as TFA salt, exatecan mesylate
[8] = Homo sapiens, MDA-MB-468, 120 h, Table 4B
[9] = Homo sapiens, SK-BR-3, 120 h, Table 4B

| Structure (SMILES) | EC50 [1, 5] [nM] | EC50 [2, 6] [nM] | also measured |
| --- | --- | --- | --- |
| CC[C@]1(O)C(=O)OCc2c1cc1n(c2=O)Cc2c-1nc1cc(F)c(C)c3c1c2[C@H](NC(=O)[C@H]1CCCN1)CC3 [Compound L078-065] | 6 | 3.2 |  |
| CC[C@]1(O)C(=O)OCc2c1cc1n(c2=O)Cc2c-1nc1cc(F)c(C)c3c1c2[C@H](NC(=O)[C@@H]1COCCN1)CC3 [Compound L078-048] | 5.7 | 5.6 |  |
| CC[C@]1(O)C(=O)OCc2c1cc1n(c2=O)Cc2c-1nc1cc(F)c(C)c3c1c2[C@H](NC(=O)[C@@H]1C[C@@H](F)CN1)CC3 [Compound L078-051] | 5.4 | 2.8 |  |
| CC[C@]1(O)C(=O)OCc2c1cc1n(c2=O)Cc2c-1nc1cc(F)c(C)c3c1c2[C@H](NC(=O)[C@@H]1CCN1)CC3 [Compound L078-043] | 3.7 | 1.8 |  |
| CC[C@]1(O)C(=O)OCc2c1cc1n(c2=O)Cc2c-1nc1cc(F)c(C)c3c1c2[C@H](NC(=O)[C@H]1CNCCO1)CC3 [Compound L078-046] | 5.7 | 5.5 |  |
| CC[C@]1(O)C(=O)OCc2c1cc1n(c2=O)Cc2c-1nc1cc(F)c(C)c3c1c2[C@H](NC(=O)C1CCNCC1)CC3 [Compound L078-081] |  |  | EC50 [1, 7]: 81.4 nM; EC50 [2, 7]: 163 nM |
| CC[C@]1(O)C(=O)OCc2c1cc1n(c2=O)Cc2c-1nc1cc(F)c(C)c3c1c2[C@H](NC(=O)[C@H]1COCCN1)CC3 [Compound L078-049] | 4.7 | 2.3 |  |
| CC[C@]1(O)C(=O)OCc2c1cc1n(c2=O)Cc2c-1nc1cc(F)c(C)c3c1c2[C@H](NC(=O)c1cccc(N)n1)CC3 [Compound L078-029] |  |  | EC50 [1, 7]: 2 nM; EC50 [2, 7]: 0.8 nM |
| CC[C@]1(O)C(=O)OCc2c1cc1n(c2=O)Cc2c-1nc1cc(F)c(C)c3c1c2[C@H](NC(=O)C1CNC1)CC3 [Compound L078-030] | 57.2 | 49.6 |  |
| CC[C@@]1(O)C(=O)OCc2c1cc1n(c2=O)Cc2c-1nc1cc(F)c(C)c3c1c2[C@@H](N)CC3 [Exatecan, exatecan, reference compound] | 1.1 | 0.69 | EC50 [1, 8]: 1.99 nM |
| CC[C@]1(O)C(=O)OCc2c1cc1n(c2=O)Cc2c-1nc1cc(F)c(C)c3c1c2[C@H](NC(=O)[C@@H]1CNCCO1)CC3 [Compound L078-047] | 15.7 | 11 |  |
| CC[C@]1(O)C(=O)OCc2c1cc1n(c2=O)Cc2c-1nc1cc(F)c(C)c3c1c2[C@H](NC(=O)[C@H]1CCN1)CC3 [Compound L078-042] | 5.7 | 2.3 |  |
| CC[C@]1(O)C(=O)OCc2c1cc1n(c2=O)Cc2c-1nc1cc(F)c(C)c3c1c2[C@H](NC(=O)C1(N)COC1)CC3 [Compound L078-088] |  |  | EC50 [1, 8]: 7.32 nM; EC50 [2, 9]: 2.72 nM |
| CC[C@]1(O)C(=O)OCc2c1cc1n(c2=O)Cc2c-1nc1cc(F)c(C)c3c1c2[C@H](NC(=O)[C@@H]1CCCN1)CC3 [Compound L078-066] | 5.6 | 3 |  |
| CC[C@@]1(O)C(=O)OCc2c1cc1n(c2=O)Cc2c-1nc1cc(F)c(C)c3c1c2[C@@H](NC(=O)CO)CC3 [Dxd, reference compound] | 2 | 2.2 | EC50 [1, 8]: 3.16 nM; EC50 ([3]; Table 5): 2.55 nM; EC50 ([3]; Table 6): 2.57 nM; EC50 [2, 9]: 3.66 nM; EC50 [4]: 3.84 nM |
| CC[C@]1(O)C(=O)OCc2c1cc1n(c2=O)Cc2c-1nc1cc(F)c(C)c3c1c2[C@H](NC(=O)C1(N)CCOC1)CC3 (stereo partly drawn) [Compound L078-149] |  |  | EC50 [1, 8]: 5.01 nM; EC50 [2, 9]: 7.71 nM |
| CC[C@]1(O)C(=O)OCc2c1cc1n(c2=O)Cc2c-1nc1cc(F)c(C)c3c1c2[C@H](NC(=O)C1(N)CCOCC1)CC3 [Compound L078-150] |  |  | EC50 ([1]; Table 4B): 3.01 nM |
